Data reported in patent publication US11472778B2, “Hepatitis C virus NS3/4A protease inhibitors” (priority 2017, dated 2022).
Read-outs that look alike come from different tables or passages of the source.

Columns and labels:
[1] = rcm bond; 15-membered ring; Zhan 1b; 1,2-DCE; 6.0 mM; 70.0 °C
[2] = biological target: T1, GT1a D168A NS3/4A protease (UniProt P27958, C1185S/D1194A, species not given); format: biochemical, Hepatitis C virus; details: read-out: Ki (nM) GT1a D168A NS3/4A Protease
T1 construct: Ki (nM) GT1a D168A NS3/4A Protease
Procedure, shortened: (§1)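 NS3/4A protease (2 nM; wild-type GT1a or D168A) pre-incubated 1 h at room temperature with increasing inhibitor in 50 mM Tris pH 7.5, 5% glycerol, 10 mM DTT, 0.6 mM LDAO, 4% DMSO. Ki from three independent data sets per construct; ΔG=RTlnKi.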

[3] = biological target: T2, GT1a D168A NS3/4A protease (UniProt P27958, D1194A, species not given); format: biochemical, Hepatitis C virus
T2 construct: rows headed: Ki (nM) D168A; Ki D168A; other: D168A variant
Procedure, shortened: as §1

[4] = biological target: GT1a D168A NS3/4A protease; format: biochemical, Hepatitis C virus; details: for Ki (Fold Change) D168A: Table 6, with respect to GT1a wild-type
Procedure, shortened: as §1

[5] = biological target: T3, wild-type GT1a NS3/4A protease (UniProt P27958); format: biochemical, Hepatitis C virus
T3 construct: Ki WT; other: wild-type HCV NS3/4A protease
Procedure, shortened: as §1

[6] = biological target: T4, wild-type GT1a NS3/4A protease (UniProt P27958, C1185S, species not given); format: biochemical, Hepatitis C virus; details: read-out: Ki (nM) GT1a WT NS3/4A Protease
T4 construct: Ki (nM) GT1a WT NS3/4A Protease
Procedure, shortened: as §1

[7] = biological target: T5, GT3a NS3/4A protease (Hepatitis C virus genotype 3a, UniProt Q81495); experiment: biochemical
T5 construct: drug-resistant variant D168A, and GT3a NS3/4A protease; made in house; host or cells: Escherichia coli BL21(DE3)
Procedure, shortened: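 Protease at 2 nM pre-incubated 1 h at room temperature with increasing inhibitor concentrations in 50 mM Tris, 5% glycerol, 10 mM DTT, 0.6 mM LDAO, 4% DMSO. Three independent data sets per inhibitor and construct.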

[8] = tested on: wild-type HCV replicon in Huh7 cells; experiment: Cell-based drug susceptibility (replicon) assay, wild-type; details: Hepatitis C virus, read-out: Replicon EC50 (nM) WT
Procedure, shortened: (§2)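 Con1 (genotype 1b) luciferase reporter replicon carrying H77 (genotype 1a) NS3, with variants made by site-directed mutagenesis, was electroporated into Huh7 cells. Cells were exposed to increasing protease inhibitor concentrations, and replication was read as luciferase activity (relative light units) 96 h after electroporation.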

[9] = tested on: HCV replicon A156T variant in Huh7 cells; experiment: microbe, parasite or virus in culture; format: cell-based, Hepatitis C virus; details: for EC50: Hepatitis C virus
Procedure, shortened: as §2

[10] = tested on: HCV replicon D168A variant in Huh7 cells; experiment: microbe, parasite or virus in culture; format: cell-based, Hepatitis C virus; details: for EC50: Hepatitis C virus
Procedure, shortened: as §2

[11] = tested on: HCV replicon R155K variant in Huh7 cells; experiment: microbe, parasite or virus in culture; format: cell-based, Hepatitis C virus; details: for EC50: Hepatitis C virus
Procedure, shortened: as §2

[12] = tested on: HCV replicon D168V variant in Huh7 cells; experiment: microbe, parasite or virus in culture; format: cell-based, Hepatitis C virus; details: for EC50: Hepatitis C virus
Procedure, shortened: as §2

[13] = biological target: GT1a R155K NS3/4A protease (UniProt P27958, R1181K, species not given); format: biochemical, Hepatitis C virus
Procedure, shortened: (§3)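 2 nM NS3/4A protease (GT1a, R155K and D168A constructs) pre-incubated 1 h at room temperature with increasing inhibitor concentrations in 50 mM Tris pH 7.5, 5% glycerol, 10 mM DTT, 0.6 mM LDAO, 4% DMSO. Three independent data sets per inhibitor and construct; ΔG of binding derived from Ki as ΔG=RTlnKi.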

[14] = biological target: GT1a R155K NS3/4A protease; format: biochemical, Hepatitis C virus; details: fold change in Ki, R155K relative to WT
Procedure, shortened: as §3

[15] = biological target: T6, GT1a D168A NS3/4A protease (UniProt P27958, C1185S/D1194A, species not given); format: biochemical, Hepatitis C virus; details: read-out: Ki (nM) D168A; Table 6; P4/P4-P5 modified macrocycles
T6 construct: P4/P4-P5 modified macrocycles
Procedure, shortened: as §1

[16] = biological target: T7, wild-type GT1a NS3/4A protease (UniProt P27958, C1185S, species not given); format: biochemical, Hepatitis C virus; details: read-out: Ki (nM) GT1a WT; Table 6; P4/P4-P5 modified macrocycles
T7 construct: P4/P4-P5 modified macrocycles
Procedure, shortened: as §1

[17] = Table 4, relative to WT replicon

T5 sequence (Q81495 1033-1214): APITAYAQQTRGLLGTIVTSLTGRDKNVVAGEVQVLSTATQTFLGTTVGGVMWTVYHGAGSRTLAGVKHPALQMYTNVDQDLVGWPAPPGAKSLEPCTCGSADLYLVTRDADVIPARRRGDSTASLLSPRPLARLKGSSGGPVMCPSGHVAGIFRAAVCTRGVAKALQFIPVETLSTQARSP

CCc1nc2ccc(OC)cc2nc1O[C@@H]1C[C@H]2C(=O)N[C@]3(C(=O)NS(=O)(=O)C4CC4)C[C@H]3/C=C\CCCCC[C@H](NC(=O)OC(C)(C)C)C(=O)N2C1 [Compound 2, tert-Butyl ((2R,6S,13aS,14aR,16aS,Z)-14a-((cyclopropylsulfonyl)carbamoyl)-2-((3-ethyl-7-methoxyquinoxalin-2-yl)oxy)-5,16-dioxo-1,2,3,5,6,7,8,9,10,11,13a,14,14a,15,16,16a-hexadecahydrocyclopropa[e]pyrrolo[1,2-a][1,4]diazacyclopentadecin-6-yl)carbamate]
ring closure, isolated yield [1]: 53% | Ki ([2]; Table 1): 82.4 nM | Ki ([2]; Table 3): 82.4 ± 4.4 nM | Ki ([3]; read-out: Ki (nM) D168A, Table 8, linear inhibitors): 91 ± 10 nM | Ki ([3]; read-out: Ki D168A, D168A variant): 91 ± 10 nM | Ki (Fold change) GT1a D168A NS3/4A Protease ([4]; Table 3, Ki D168A relative to GT1a WT): (25) fold | Ki D168A (fold change) ([4]; fold change in Ki, D168A relative to WT): 46 | Ki ([5]; read-out: Ki (nM) WT, Table 8, linear inhibitors): 2 nM | Ki ([5]; read-out: Ki WT, wild-type HCV NS3/4A protease): 2 ± 0.1 nM | Ki ([6]; Table 1): 3.29 nM | Ki ([6]; Table 3): 3.29 nM | Ki [7]: 204 nM | Ki (Fold change) GT3a NS3/4A Protease ([7]; Table 3, Ki GT3a relative to GT1a WT): (62) fold | EC50 ([8]; Huh-7, 96 h, Table 2, Huh7 cells, luciferase 96 h): 0.33 nM | EC50 ([8]; Huh-7, Table 4): 0.33 nM | EC50 ([8]; Huh-7, Table 9): 0.33 nM | EC50 ([9]; Huh-7, 96 h, read-out: Replicon EC50 (nM) A156T, Table 2, Huh7 cells, luciferase 96 h): 9.65 nM | EC50 ([9]; Huh-7, read-out: Replicon EC50 (nM) A156T, Table 4): 9.65 nM | EC50 ([9]; Huh-7, read-out: Replicon EC50 (nM) A156T, Table 9): 9.7 nM | Replicon EC50 (Fold change) A156T [9, 17]: (29) fold | Replicon EC50 (Fold change) A156T ([9]; Table 9, relative to WT): (29) fold | EC50 ([10]; Huh-7, 96 h, read-out: Replicon EC50 (nM) D168A, Table 2, Huh7 cells, luciferase 96 h): 6.31 nM | EC50 ([10]; Huh-7, read-out: Replicon EC50 (nM) D168A, Table 4): 6.31 nM | EC50 ([10]; Huh-7, read-out: Replicon EC50 (nM) D168A, Table 9): 6.3 nM | Replicon EC50 (Fold change) D168A [10, 17]: (19) fold | Replicon EC50 (Fold change) D168A ([10]; Table 9, relative to WT): (19) fold | EC50 ([11]; Huh-7, 96 h, read-out: Replicon EC50 (nM) R155K, Table 2, Huh7 cells, luciferase 96 h): 1.75 nM | EC50 ([11]; Huh-7, read-out: Replicon EC50 (nM) R155K, Table 4): 1.75 nM | EC50 ([11]; Huh-7, read-out: Replicon EC50 (nM) R155K, Table 9): 1.8 nM | Replicon EC50 (Fold change) R155K [11, 17]: (5) fold | Replicon EC50 (Fold change) R155K ([11]; Table 9, relative to WT): (5.5) fold | EC50 ([12]; Huh-7, 96 h, read-out: Replicon EC50 (nM) D168V, Table 2, Huh7 cells, luciferase 96 h): 9.1 nM | EC50 ([12]; Huh-7, read-out: Replicon EC50 (nM) D168V, Table 4): 9.1 nM | EC50 ([12]; Huh-7, read-out: Replicon EC50 (nM) D168V, Table 9): 9.1 nM | Replicon EC50 (Fold change) D168V [12, 17]: (28) fold | Replicon EC50 (Fold change) D168V ([12]; Table 9, relative to WT): (28) fold | Ki ([13]; read-out: Ki (nM) R155K, Table 8, linear inhibitors): 3.1 ± 0.34 nM | Ki ([13]; read-out: Ki R155K, R155K variant): 3.1 ± 0.34 nM | Ki R155K (fold change) [14]: 1.6

COc1ccc2nc(C)c(O[C@@H]3C[C@H]4C(=O)N[C@]5(C(=O)NS(=O)(=O)C6(C)CC6)C[C@H]5/C=C\CCCCC[C@H](NC(=O)OC5(C)CCCC5)C(=O)N4C3)nc2c1 [Compound P4-3, 1-methylcyclopentyl ((2R,6S,13aS,14aR,16aS,Z)-2-((7-methoxy-3-methylquinoxalin-2-yl)oxy)-14a-(((1-methylcyclopropyl)sulfonyl)carbamoyl)-5,16-dioxo-1,2,3,5,6,7,8,9,10,11,13a,14,14a,15,16,16a-hexadecahydrocyclopropa[e]pyrrolo[1,2-a][1,4]diazacyclopentadecin-6-yl)carbamate]
Ki [15]: 16 nM | Ki (Fold Change) D168A [4]: (9) fold | Ki [16]: 1.78 ± 0.3 nM

COC(=O)N[C@H](C(=O)N[C@H]1CCCCC/C=C\[C@@H]2C[C@@]2(C(=O)NS(=O)(=O)C2(C)CC2)NC(=O)[C@@H]2C[C@@H](Oc3nc4cc(OC)ccc4nc3C)CN2C1=O)C(C)(C)C [Compound P4-P5-1, Methyl ((S)-1-(((2R,6S,13aS,14aR,16aS,Z)-2-((7-methoxy-3-methylquinoxalin-2-yl)oxy)-14a-(((1-methylcyclopropyl)sulfonyl)carbamoyl)-5,16-dioxo-1,2,3,5,6,7,8,9,10,11,13a,14,14a,15,16,16a-hexadecahydrocyclopropa[e]pyrrolo[1,2-a][1,4]diazacyclopentadecin-6-yl)amino)-3,3-dimethyl-1-oxobutan-2-yl)carbamate]
Ki [15]: 201 ± 15 nM | Ki (Fold Change) D168A [4]: (8) fold | Ki [16]: 29.5 nM

COc1ccc2nc(C)c(O[C@@H]3C[C@H]4C(=O)N[C@]5(C(=O)NS(=O)(=O)C6(C)CC6)C[C@H]5/C=C\CCCCC[C@H](NC(=O)[C@@H](NC(C)=O)C(C)(C)C)C(=O)N4C3)nc2c1 [Compound P4-P5-2]
Ki [15]: 215 ± 16 nM | Ki (Fold Change) D168A [4]: (9) fold | Ki [16]: 23.9 ± 1.7 nM

COC(=O)N[C@H](C(=O)N[C@H]1CCCCC/C=C\[C@@H]2C[C@@]2(C(=O)NS(=O)(=O)C2(C)CC2)NC(=O)[C@@H]2C[C@@H](Oc3nc4cc(OC)ccc4nc3C)CN2C1=O)C(C)C [Compound P4-P5-3, Methyl ((S)-1-(((2R,6S,13aS,14aR,16aS,Z)-2-((7-methoxy-3-methylquinoxalin-2-yl)oxy)-14a-(((1-methylcyclopropyl)sulfonyl)carbamoyl)-5,16-dioxo-1,2,3,5,6,7,8,9,10,11,13a,14,14a,15,16,16a-hexadecahydrocyclopropa[e]pyrrolo[1,2-a][1,4]diazacyclopentadecin-6-yl)amino)-3-methyl-1-oxobutan-2-yl)carbamate]
Ki [15]: 102 ± 6.8 nM | Ki (Fold Change) D168A [4]: (8) fold | Ki [16]: 13 ± 0.8 nM

COc1ccc2nc(C)c(O[C@@H]3C[C@H]4C(=O)N[C@]5(C(=O)NS(=O)(=O)C6(C)CC6)C[C@H]5/C=C\CCCCC[C@H](NC(=O)[C@@H](NC(C)=O)C(C)C)C(=O)N4C3)nc2c1 [Compound P4-P5-4]
Ki [15]: 141 ± 18 nM | Ki (Fold Change) D168A [4]: (13) fold | Ki [16]: 11.1 ± 0.5 nM

COC(=O)N[C@H](C(=O)N[C@H]1CCCCC/C=C\[C@@H]2C[C@@]2(C(=O)NS(=O)(=O)C2(C)CC2)NC(=O)[C@@H]2C[C@@H](Oc3nc4cc(OC)ccc4nc3C)CN2C1=O)C1CCCC1 [Compound P4-P5-5, Methyl ((S)-1-cyclopentyl-2-(((2R,6S,13aS,14aR,16aS,Z)-2-((7-methoxy-3-methylquinoxalin-2-yl)oxy)-14a-(((1-methylcyclopropyl)sulfonyl)carbamoyl)-5,16-dioxo-1,2,3,5,6,7,8,9,10,11,13a,14,14a,15,16,16a-hexadecahydrocyclopropa[e]pyrrolo[1,2-a][1,4]diazacyclopentadecin-6-yl)amino)-2-oxoethyl)carbamate]
Ki [15]: 31.6 ± 2.1 nM | Ki (Fold Change) D168A [4]: (9) fold | Ki [16]: 3.54 ± 0.13 nM
